{"source": "patent US8741888B2", "about": "“Sleep aid composition and method” (priority 2010, dated 2014)", "key": {"human [1]": {"system": "human"}, "human [2]": {"system": "human", "settings": "cited from earlier work"}, "[3]": {"settings": "previous range about 170-174 pounds held for ten years"}}, "note": "Like-named read-outs stand apart in the source and are kept apart here."}
{"smiles": "Cc1ccc(-c2nc3ccc(C)cn3c2CC(=O)N(C)C)cc1", "note": "[zolpidem]", "values": [{"measurement": "ability to sleep without the drug (dependence)", "setting": "human [1]; after extended use of zolpidem alone", "value": "unable to sleep without zolpidem"}, {"measurement": "time asleep before getting up to empty their bladder", "setting": "human [1]; inventor, nightly use", "value": "four or even three"}, {"measurement": "time kept asleep per dose", "setting": "human [1]; zolpidem (Ambien) alone", "value": "about four"}, {"measurement": "duration of effectiveness", "setting": "human [2]; zolpidem alone, background", "value": "about four"}, {"measurement": "time of use after which tolerance can develop", "setting": "human [2]; zolpidem alone, background", "value": "just a few weeks"}, {"measurement": "period of use after which the drug becomes addictive", "setting": "human [2]; zolpidem alone, Kirkwood, Mariani et al.", "value": "about two months or longer"}, {"measurement": "effectiveness in maintaining sleep", "setting": "human [2]; zolpidem, Wikipedia, Rosenberg 2006", "value": "has not adequately demonstrated effectiveness in maintaining sleep"}]}
{"smiles": "OCCOCCN1CCN(C2=Nc3ccccc3Sc3ccccc32)CC1", "note": "[quetiapine]", "values": [{"measurement": "drowsiness after getting up", "setting": "human [1]; quetiapine (Seroquel) alone, 75 mg reduced gradually to 50 mg", "value": "leaving them drowsy, especially in the mornings"}, {"measurement": "drowsiness after getting up", "setting": "human [1]; quetiapine alone, 25 mg", "value": "did not leave them drowsy after getting up"}, {"measurement": "time the drug had to be taken before going to bed", "setting": "human [1]; quetiapine alone, 25 mg", "value": "an hour to an hour and a half"}, {"measurement": "grogginess after additional dose taken during the night", "setting": "human [1]; quetiapine alone, 25 mg plus additional quetiapine", "value": "left them a bit groggy during the early part of the day"}, {"measurement": "body weight", "setting": "[3]", "value": 184, "unit": "pounds"}, {"measurement": "dosage ultimately required after development of tolerance", "setting": "human [2]; quetiapine, Mariani et al. report", "value": 800, "unit": "mg"}, {"measurement": "time after ingestion before the drug enters the system", "setting": "human [2]; quetiapine, background", "value": "about an hour or more"}, {"measurement": "side effect at recommended amounts", "setting": "human [2]; quetiapine, Wikipedia, Seroquel prescribing information", "value": "somnolence (drowsiness)"}]}
